Results reported in US7842683B2, “Neurotherapeutic compositions and method” (Revaax Pharmaceuticals, LLC, priority 1999, dated 2010).

How the values were obtained:
male golden hamsters = experiment: Resident/intruder paradigm of offensive aggression; type: in vivo, Syrian golden hamsters (Mesocricetus auratus)
Method: Male Syrian golden hamsters (Mesocricetus auratus) (140-150 g) obtained from Harlan Sprague-Dawley Laboratories (Indianapolis, Ind.) were housed individually in Plexiglas cages (24 cm×24 cm×20 cm), maintained on a reverse light:dark cycle (14L:10D; lights on at 19:00 hr) and provided food and water ad libitum. Animals were acclimated to the reverse light:dark cycle for at least two weeks before testing. All behavioral tests were conducted during the dark phase of the circadian cycle. All animals were acquired and cared for in accordance with the guidelines published in the Guide for the Care and Use of Laboratory Animals (National Institutes of Health Publications No. 85-23, Revised 1985).
(§1) Agonistic behavior can be classified as either offensive or defensive aggression (Blanchard and Blanchard, 1977; Adams, […]; Albert and Walsh, 1984). Offensive aggression is characterized by the aggressor initiating an attack on an opponent, while defensive aggression lacks active approach. Both types of aggression have their own unique neurobehavioral systems. The stimuli that elicit offensive and defense attack are different, as are the sequences of behaviors that accompany each agonistic response. […] Offensive aggression is easily studied using male golden hamsters tested in a resident/intruder paradigm, an established model of offensive aggression (Ferris and Potegal 1988). Placing an unfamiliar male hamster into the home cage of another male hamster elicits a well-defined sequence of agonistic behaviors from the resident that includes offensive aggression.
(§2) Hamsters are nocturnal and as such all behavioral tests were performed during the first four hrs of the dark phase under dim red illumination. The resident was scored for offensive aggression, e.g., latency to bite the intruder, the total number of bites, total contact time with the intruder and flank marking over a 10 min test period (Ferris and Potegal, 1988). Flank marking is a form of olfactory communication in which a hamsters arches its back and rubs pheromone producing flank glands against objects in the environment (Johnson, 1986).
Parametric data, i.e., latencies and contact time, were analyzed with a one-way ANOVA followed by Newman-Keuls post hoc tests. Non parametric data, i.e., number of bites and flank marks, were analyzed with Kruskal-Wallis tests followed by Mann-Whitney U tests to determine differences between groups. Two sample comparisons were analyzed with paired and unpaired t-Tests for parametric data and Wilcoxon and Mann-Whitney Tests for paired and unpaired non-parametric data, respectively.
as §1, with “by an” for “by the”, “an opponent; while,” for “an opponent, while”, “Potegal 1988) in the context of defending the home burrow.” for “Potegal 1988).”
as §2, with “Flank marking is a form of olfactory communication in which a hamsters arches its back and rubs pheromone producing flank glands against objects in the environment (Johnson, 1986).” left out

golden hamsters = experiment: Seed finding model of anxiety; type: in vivo, Syrian golden hamsters (Mesocricetus auratus)
Source text: Clavulanic acid (CLAV) is structurally similar to the beta-lactam antibiotics. A most robust and simple bioassay for screening beta-lactams for CNS activity is the golden hamster seed finding model of anxiety. Briefly, hamsters are deprived of food overnight. The following day they are exposed to the additional stress of being taken from their home cage and placed in a novel environment for a few minutes. This manipulation stimulates the release of the stress hormone cortisol (FIG. 37). During their absence from the home cage, sunflower seeds are hidden under the bedding in one of the corners. When returned to the home cage, hamsters routinely scramble along the walls for 1-2 min before settling down, locating and eating the seeds. However, animals treated with the benzodiazepine anxiolytic chlordiazepoxide find seeds in less than 10 sec.
Male, Syrian golden hamsters (Mesocricetus auratus) (120-130 g) obtained from Harlan Sprague-Dawley Laboratories (Indianapolis, Ind.) were housed individually in Plexiglas cages (24 cm×24 cm×20 cm), maintained on a reverse light:dark cycle (14L:10D; lights on at 19:00 hr) and provided food and water ad libitum. A range of concentrations of CLAV (saline vehicle, 0.1, 1.0, 10, 100 1,000 ng/kg) were tested in six groups of hamsters (4-8/group)(FIG. 25). All tests were conducted during the dark phase of the circadian cycle under dim red illumination. Prior to testing all animals were fasted for 20-24 hrs. Ninety min after intraperitoneal (IP) injection of drug, animals were taken from their home cage and placed into a holding cage for 2 min. During their absence, six sunflower seeds were buried under the bedding in one corner of their home cage. Animals were placed back into their home cage randomly facing any one of the empty corners and timed for their latency to find the seeds in a five min observation period. Latency times were analyzed with a one-way ANOVA followed by Scheffe's post hoc tests. Assumption of equal variances was tested (Hartley's F-max=2.1 p>0.05)
It was hypothesized that CLAV functioned as an anxiolytic in the seed finding assay by blocking NAALADase activity in the brain. If this notion were true then it would be predicted that drugs known to block NAALADase should also enhance seed finding. To this end, animals were treated with N-acetyl-beta-aspartyl-glutamic acid (beta-NAAG), a competitive inhibitor of NAALADase (Serval et al., 1992) and tested in the seed finding model of anxiety. The study was similar to that outlined in Section I with one notable exception. […] Beta-NAAG (FW 304) was given in a dose of 3 ng in a volume of 1 μl saline ICV. The average adult hamster brain weights ca. 1.2 g of which 22% is extracellular fluid. The estimated beta-NAAG concentration was 11 ng/ml or 36 nM.
Two groups of six animals each were fasted overnight as previously described and tested the following day. One group was treated with beta-NAAG and the other saline vehicle and one hr later timed for latency to find the hidden sunflower seeds. A Student t-test for unpaired data was used for statistical comparisons.

[1] = in vivo; cited from earlier work
[2] = Estimated fluid and brain concentrations after dosing hamsters; type: in vivo, hamster
Method: The adult male hamsters used in these studies weighed around 125 g. […] CLAV has a volume of distribution approximating the extracellular fluid volume. The extracellular water content of lean body mass is approximately 22%.
To this end, animals were treated with N-acetyl-beta-aspartyl-glutamic acid (beta-NAAG), a competitive inhibitor of NAALADase (Serval et al., 1992) and tested in the seed finding model of anxiety. The study was similar to that outlined in Section I with one notable exception. […] Beta-NAAG (FW 304) was given in a dose of 3 ng in a volume of 1 μl saline ICV. The average adult hamster brain weights ca. 1.2 g of which 22% is extracellular fluid.

hamsters = experiment: Olfactory discrimination: latency to find hidden sunflower seeds; type: in vivo, Syrian golden hamsters (Mesocricetus auratus); conditions: 1 mg/kg intracerebroventricular, sixty min, five min observation
Method: Sixteen animals were treated with vehicle or 50 μg/kg Mox and tested for olfactory discrimination by measuring their latency to find hidden sunflower seeds (FIG. 5). The injections were counterbalanced with each animal receiving each treatment. Prior to testing animals were fasted for 24 hrs. Ninety minutes after injection animals were briefly taken from their home cage while six sunflower seeds were buried under the bedding in one corner. Animals were placed back into their home cage and scored for the latency to find the seeds in a ten min observation period. […] In fact, not one of the sixteen animals consumed all of the seeds following saline as compared to all animals treated with Mox.
Six animals received an intracerebroventricular injection of vehicle or 1 mg/kg PPP and tested for olfactory discrimination by measuring their latency to find hidden sunflower seeds (FIG. 16). The injections were counterbalanced with each animal receiving each treatment. Prior to testing animals were fasted for 24 hrs. Sixty min. After injection animals were briefly taken from their home cage while six sunflower seeds were buried under the bedding in one corner. Animals were placed back into their home cage and scored for the latency to find the seeds in a five min. Observation period.

[3] = high dose ca. 5 mg/kg, 9 mM, IP
[4] = high dose ca. 5 mg/kg, 9 mM, IP, 90 min

Molecule	blood-brain barrier transport / CNS penetrability [1]	contact time (male golden hamsters; equimolar (90 μM) IP, 90 min)	flank marking (male golden hamsters; equimolar (90 μM) IP, 90 min)	contact time (male golden hamsters; [3])	flank marking (male golden hamsters; [3])	latency to bite (male golden hamsters; [4])	number of bites (male golden hamsters; [4])	further results
CC(=O)N[C@@H](CC(=O)N[C@@H](CCC(=O)O)C(=O)O)C(=O)O [beta-NAAG, N-acetyl-beta-aspartyl-glutamic acid]	does not readily cross the blood-brain barrier							measures of offensive aggression (latency to bite, bites, contact time, flank marking) (male golden hamsters; 3 ng ICV, after the seed finding assay): no significant differences; latency to find the seeds vs saline vehicle (golden hamsters; 3 ng ICV, one hr, five min observation): significantly (p<0.001) different; mean latency to find the seeds (golden hamsters; 3 ng/μl microinjected, former vehicle animals three days later): 21.8 ± 9.7 s; estimated concentration in brain extracellular fluid (molar) ([2]; beta-NAAG 3 ng ICV, FW 304): 36 nM; estimated concentration in brain extracellular fluid ([2]; beta-NAAG 3 ng in 1 μl ICV, brain ca. 1.2 g, 22% extracellular fluid): 11 ng/mL
CC1(C)S[C@@H]2[C@H](NC(=O)C(C(=O)O)c3ccccc3)C(=O)N2[C@H]1C(=O)O (stereo partly drawn) [Carb, Carbenicillin]		no significant treatment effect	no significant treatment effect	no significant treatment effect	no significant treatment effect	significantly delayed	significantly reduced	
CC1(C)S[C@@H]2[C@H](NC(=O)[C@H](N)c3ccccc3)C(=O)N2[C@H]1C(=O)O [Amp, Ampicillin]		no significant treatment effect	no significant treatment effect	no significant treatment effect	no significant treatment effect	significantly delayed	significantly reduced	number of bites (male golden hamsters; equimolar (90 μM) IP, 90 min): significantly reduced; latency to bite (male golden hamsters; equimolar (90 μM, equal to 50 μg/kg Mox) IP, 90 min): significantly delayed
CC1(C)S[C@@H]2[C@H](NC(=O)[C@H](N)c3ccc(O)cc3)C(=O)N2[C@H]1C(=O)O [Amox, Amoxicillin]		no significant treatment effect	no significant treatment effect					aggressive behavior (male golden hamsters; 1 mg/kg (ca. 2 mM) IP, 90 min): not significantly altered
Ala-D-γ-Glu-Lys-D-Ala-D-Ala [PPP]								contact time (male golden hamsters; ca. 1 mg/kg ICV): no significant difference; flank marking (male golden hamsters; ca. 1 mg/kg ICV): no significant difference; number of bites (male golden hamsters; ca. 1 mg/kg ICV, sixty minutes): reduced; latency to bite (male golden hamsters; ca. 1 mg/kg in 1 μl into lateral ventricle, sixty minutes): significantly increased; latency to find the seed (hamsters): significantly (p<0.05) reduced
CO[C@@]1(NC(=O)Cc2cccs2)C(=O)N2C(C(=O)O)=C(COC(N)=O)CS[C@@H]21 [Cef, Cefoxitin]	poor CNS penetrability	no significant treatment effect	no significant treatment effect	no significant treatment effect	no significant treatment effect			
